Source: publication PMC8621770, “New Compounds with Bioisosteric Replacement of Classic Choline Kinase Inhibitors Show Potent Antiplasmodial Activity” (Pharmaceutics, 2021)
Counter-ions that a name gives are not always drawn. Like-named read-outs stand apart in the source and are kept apart here.

Assays:
P. falciparum strain 3D7 = assay: Antimalarial activity, P. falciparum lactate dehydrogenase growth inhibition assay; format: cell-based, Plasmodium falciparum; details: for fold decrease in antimalarial activity with respect to the reference compounds BR-23 / BR-25: Fg-9, Fa-21, Fg-14 vs BR-23, Ff-1, Ff-7, Ff-3 vs BR-25; for IC50: P. falciparum 3D7 in human erythrocytes, 72 h, LDH readout, read-out: IC50 a (In vitro IC50 values against P. falciparum); for fold decrease of antimalarial activity with respect to RSM932A: relative to RSM932A; for fold decrease in parasite lethality with respect to BR-31: relative to homologous BR-31
Experimental: Parasites of the P. falciparum strain 3D7 were grown in fresh group 0 positive human erythrocytes, obtained from the Centro Regional de Transfusion Sanguínea-SAS (Granada, Spain) and suspended at 5% haematocrit in RPMI 1640 containing 2% human serum, 0.2% NaHCO3, 0.5% Albumax II, 150 μM hypoxanthine, and […] gentamicin. Flasks were incubated at 37 °C, under 5% CO2 and 95% air mixture. […] The stock culture was then diluted with complete medium and non-parasitized erythrocytes to yield a haematocrit of 2% and parasitemia of 0.25%. Stock solutions of the test drugs were prepared at an initial concentration of 200 mM in DMSO, serially diluted and dispensed into triplicate in 96-well plates to yield final concentrations ranging from 0.0039 to 2 μM. The final well volume was 200 μL with a final concentration of DMSO 0.001%. Each plate also included positive growth controls, where only medium were added, and negative growth controls with 100 nM of chloroquine. […] A multidrop dispenser was used to add 50 μL of synchronized parasite culture per well. After 72 h of growth in presence of test compounds, the plates were stored frozen at −20 °C for at least 24 h. Next, they were thawed at room temperature. Parasite growth inhibition assays and IC50 determinations were carried out following the P. falciparum lactate dehydrogenase assay where parasite viability is quantified by measuring LDH activity upon APAD+ addition, a cofactor that is specific to the Plasmodium enzyme. To evaluate LDH activity, 140 μL of freshly made reaction mix, containing 143 mM sodium L-lactate, 143 μM APAD, 178.75 μM NBT, 1 U/mL diaphorase, 0.7% Tween 20 and 100 mM Tris-HCl (pH 8.0) were dispensed into plates. After 10 min of incubation in the dark at room temperature, absorbance was measured at 630 nm with a vmax precision multiwell plate reader from Molecular Devices, by using the accompanying SOFT maxPro software for analysis.

PfCK = molecular target: T1, PfCK (Plasmodium falciparum, UniProt Q8IM71); assay: Spectrophotometric coupled enzymatic assay for PfCK activity (substrate choline); format: biochemical; details: for IC50: IC50 PfCK b (compound concentration required to inhibit PfCK enzyme by 50%), substrate choline 4 mM, ATP 2 mM
T1 construct: A truncated form of PfCK (Δ79-440) featuring an N-terminal 6× His-tag; 6xHis (N); host or cells: Escherichia coli BL21 (DE3) Star
Experimental: A truncated form of PfCK (Δ79-440) featuring an N-terminal 6× His-tag was purchased from Genescript (Piscataway, NJ, USA), cloned into a pET-28a vector and transformed into Escherichia coli BL21 (DE3) Star cells (Invitrogen, Carlsbad, CA, USA). The transformed bacteria were cultured in Luria-Bertani (LB) medium at 37 °C until OD600 = 0.6 and the expression was induced with 1 mM isopropyl β-D-1-thiogalactopyranoside (IPTG). The cell culture was grown overnight at 20 °C and 180 rpm. Cells were pelleted by centrifugation at 10,000 rpm, resuspended in 50 mM Tris/HCl pH 7.5, 500 mM NaCl, 0.2 mM phenylmethylsulphonyl fluoride (PMSF, Sigma Aldrich, St. Luis, MO, USA), DNase (Sigma Aldrich, St. Luis, MO, USA), 0.5 mM β-mercaptoethanol (Sigma Aldrich, St. Luis, MO, USA) and sonicated. Separation of the soluble from the insoluble fraction was obtained by centrifugation at 15,000 rpm and 4 °C. The target enzyme was purified by a two-step purification protocol. In the first step, the cell lysate was incubated for 45 min with Ni-NTA resin (Qiagen, Venlo, The Netherlands) in a gravity column. Then, the column was washed with 40 column volumes (CV) of 50 mM Tris/HCl pH 7.5, 300 mM NaCl, 10 mM imidazole and 1 CV of 50 mM Tris/HCl pH 7.5, 300 mM NaCl, 40 mM imidazole. Finally, the His-tagged enzyme was eluted from the column using a 50 mM Tris/HCl pH 7.5, 300 mM NaCl, 400 mM imidazole buffer. A subsequent size-exclusion chromatography step was implemented to further polish the sample using a HiPrep 26/60 Sephacryl 100 HR column (GE Healthcare, Little Chalfont, Buckinghamshire, UK) previously equilibrated with 20 mM Tris/HCl pH 7.5, 150 mM NaCl buffer. This second purification step afforded a pure protein sample. The protein production yield was estimated to be nearly 2.5 mg of recombinant enzyme per liter of bacterial culture.
A spectrophotometric 96-well plate assay for PfCK activity was established based on an assay previously described. The reaction mix was composed as follows: 100 mM Tris/HCl pH 7.5, 100 mM KCl, 10 mM MgCl2, 0.5 mM phosphoenolpyruvate, 0.25 mM NADH, 4 U of pyruvate kinase, 5 U lactate dehydrogenase, 2 mM ATP, 4 mM choline chloride and different concentrations of the selected compounds. All the necessary compounds for the assay were purchased from Sigma Aldrich (St. Luis, MO, USA) and the final assay volume was 200 μL. The enzymatic reaction was initiated by the addition of the enzyme at less than 10 nM concentration and the reaction rates were measured by monitoring the decrease in the absorbance at 340 nm for 20 min at room temperature using a Spark10M instrument (Tecan). Finally, the IC50 values for each compound were determined by plotting the enzyme fractional activity (f.a.) against the logarithm of compound concentration (log[I]). Curve-fitting was performed with a dose-response curve from Origin (OriginLab Corporation, Northampton, MA, USA), using the following equation: f.a.=1/1+10^logIC50−logI
All data points were collected in triplicate and the final dose-response curves were plotted with MATLAB (R2018a (9.4.0.813654), 2018, MathWorks, Natick, MA, USA). See curves in Figure S1 in Supplementary Materials.

[1] = Plasmodium falciparum, Erythrocyte
[2] = read-out: PfCK Fractional Activity at 25 µM

T1 sequence (Q8IM71 entry or part of it): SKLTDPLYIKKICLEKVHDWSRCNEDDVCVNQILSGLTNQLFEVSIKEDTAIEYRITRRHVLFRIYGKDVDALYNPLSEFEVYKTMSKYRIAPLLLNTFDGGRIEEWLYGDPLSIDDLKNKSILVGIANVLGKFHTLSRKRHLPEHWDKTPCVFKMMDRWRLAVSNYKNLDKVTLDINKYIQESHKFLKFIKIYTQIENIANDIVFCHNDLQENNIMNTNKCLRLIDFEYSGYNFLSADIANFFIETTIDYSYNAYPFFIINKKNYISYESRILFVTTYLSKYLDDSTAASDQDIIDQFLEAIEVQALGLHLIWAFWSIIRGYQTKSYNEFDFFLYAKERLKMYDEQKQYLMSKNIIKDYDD

[Br-].[Br-].c1cc2c(N3CCCCC3)nc[n+](Cc3ccc(CCCCc4ccc(C[n+]5cnc(N6CCCCC6)c6ccsc65)cc4)cc3)c2s1
melting point: 282 to 284 °C

c1cc2c(s1)c(N1CCCCCC1)cc[n+]2Cc1ccc(-c2ccc(C[n+]3ccc(N4CCCCCC4)c4sccc43)cc2)cc1 (as salt: bromide) [Fg-10, 1,1’-([1,1’-biphenyl]-4,4’-diylbis(methylene))bis(7-(azepan-1-yl)thieno[3,2-b]pyridin-4-ium) bromide]
melting point: 220 to 222 °C

[Br-].[Br-].c1cc2c(s1)c(N1CCCC1)nc[n+]2Cc1ccc(-c2ccc(C[n+]3cnc(N4CCCC4)c4sccc43)cc2)cc1 [Fa-21, 1,1’-([1,1’-biphenyl]-4,4’-diylbis(methylene))bis(4-(pyrrolidin-1-yl)thieno[3,2-d]pyrimidin-1-ium) bromide]
melting point: 312 to 315 °C
fold decrease in antimalarial activity with respect to the reference compounds BR-23 / BR-25 (P. falciparum strain 3D7): 10 fold
IC50 (P. falciparum strain 3D7; [1]): 0.0137 µM

[Br-].[Br-].c1cc2c(s1)c(N1CCCCCC1)nc[n+]2Cc1ccc(CCc2ccc(C[n+]3cnc(N4CCCCCC4)c4sccc43)cc2)cc1 [Fa-23, 1,1’-((ethane-1,2-diylbis(4,1-phenylene))bis(methylene))bis(4-(azepan-1-yl)thieno[3,2-d]pyrimidin-1-ium) bromide]
melting point: 321 to 323 °C
IC50 (P. falciparum strain 3D7; [1]): 0.0678 µM

c1cc2c(s1)c(N1CCCCC1)nc[n+]2Cc1ccc(-c2ccc(C[n+]3cnc(N4CCCCC4)c4sccc43)cc2)cc1 [Fa-24, 1,1’-([1,1’-biphenyl]-4,4’-diylbis(methylene))bis(4-(piperidin-1-yl)thieno[3,2-d]pyrimidin-1-ium) bromide]
IC50 (P. falciparum strain 3D7; [1]): 0.0578 µM
remaining activity at 25 µM (PfCK; [2]): 57.1 ± 5.15%

[Br-].[Br-].c1cc2c(s1)c(N1CCCCC1)nc[n+]2Cc1ccc(CCc2ccc(C[n+]3cnc(N4CCCCC4)c4sccc43)cc2)cc1 [Fa-25, 1,1’-((ethane-1,2-diylbis(4,1-phenylene))bis(methylene))bis(4-(piperidin-1-yl)thieno[3,2-d]pyrimidin-1-ium) bromide]
melting point: 314 to 316 °C
IC50 (P. falciparum strain 3D7; [1]): 0.0347 µM

[Br-].[Br-].c1cc2c(s1)c(N1CCCC1)cc[n+]2Cc1ccc(CCCCc2ccc(C[n+]3ccc(N4CCCC4)c4sccc43)cc2)cc1 [Ff-1, 4,4’-((butane-1,4-diylbis(4,1-phenylene))bis(methylene))bis(7-(pyrrolidin-1-yl)thieno[3,2-b]pyridin-4-ium) bromide]
fold decrease in antimalarial activity with respect to the reference compounds BR-23 / BR-25 (P. falciparum strain 3D7): 10 fold
IC50 (P. falciparum strain 3D7; [1]): 0.0901 µM
IC50 (PfCK): 10.9 ± 1.33 µM
remaining activity at 25 µM (PfCK; [2]): 47 ± 3.53%

[Br-].[Br-].c1cc2c(N3CCCC3)nc[n+](Cc3ccc(CCCCc4ccc(C[n+]5cnc(N6CCCC6)c6ccsc65)cc4)cc3)c2s1 [Ff-3, 1,1’-((butane-1,4-diylbis(4,1-phenylene))bis(methylene))bis(4-(pyrrolidin-1-yl)thieno[2,3-d]pyrimidin-1-ium) bromide]
melting point: 288 to 290 °C
fold decrease in antimalarial activity with respect to the reference compounds BR-23 / BR-25 (P. falciparum strain 3D7): 10 fold
IC50 (P. falciparum strain 3D7; [1]): 0.0388 µM

c1cc2c(s1)c(N1CCCCCC1)nc[n+]2Cc1ccc(OCCOc2ccc(C[n+]3cnc(N4CCCCCC4)c4sccc43)cc2)cc1 [Ff-34, 1,1′-(((ethane-1,2-diylbis(oxy))bis(4,1-phenylene))bis(methylene))bis(4-(azepan-1-yl)thieno[3,2-d]pyrimidin-1-ium) bromide]
IC50 (P. falciparum strain 3D7; [1]): 0.0879 µM
remaining activity at 25 µM (PfCK; [2]): 52.2 ± 12.4%
remaining activity at 25 µM (PfCK; read-out: residual enzyme activity): 52.2%

c1cc2c(s1)c(N1CCCCCC1)cc[n+]2Cc1ccc(-c2ccc(C[n+]3ccc(N4CCCCCC4)c4sccc43)cc2)cc1 [Fg-10, 1,1’-([1,1’-biphenyl]-4,4’-diylbis(methylene))bis(7-(azepan-1-yl)thieno[3,2-b]pyridin-4-ium) bromide]
IC50 (P. falciparum strain 3D7; [1]): 0.053 µM
remaining activity at 25 µM (PfCK; [2]): 44.7 ± 8.55%

c1cc2c(s1)c(N1CCCC1)cc[n+]2Cc1ccc(-c2ccc(C[n+]3ccc(N4CCCC4)c4sccc43)cn2)nc1 [Fg-12, 4,4’-([2,2’-bipypidine]-5,5’-diylbis(methylene))bis(7-(pyrrolidin-1-yl)thieno[3,2-b]pyridin-4-ium bromide)]
IC50 (P. falciparum strain 3D7): 0.305 µM

[Br-].[Br-].c1cc2c(N3CCCC3)nc[n+](Cc3ccc(-c4ccc(C[n+]5cnc(N6CCCC6)c6ccsc65)cc4)cc3)c2s1 [Fg-14, 1,1’-([1,1’-biphenyl]-4,4’-diylbis(methylene))bis(4-(pyrrolidin-1-yl)thieno[2,3-d]pyrimidin-1-ium) bromide]
melting point: 300 to 302 °C
fold decrease in antimalarial activity with respect to the reference compounds BR-23 / BR-25 (P. falciparum strain 3D7): 10 fold
IC50 (P. falciparum strain 3D7; [1]): 0.0206 µM

c1cc2c(N3CCCCC3)nc[n+](Cc3ccc(-c4ccc(C[n+]5cnc(N6CCCCC6)c6ccsc65)cc4)cc3)c2s1 [Fg-30, 1,1’-([1,1’-biphenyl]-4,4’-diylbis(methylene))bis(4-(piperidin-1-yl)thieno[2,3-d]pyrimidin-1-ium) bromide]
IC50 (P. falciparum strain 3D7; [1]): 0.0279 µM
remaining activity at 25 µM (PfCK; [2]): 54.8 ± 7.2%

CN(c1ccccc1)c1nc[n+](Cc2ccc(-c3ccc(C[n+]4cnc(N(C)c5ccccc5)c5sccc54)cc3)cc2)c2ccsc12.[Br-].[Br-] [Fp-1, 1,1’-([1,1’-biphenyl]-4,4’-diylbis(methylene))bis(4-(methyl(phenyl)amino)thieno[3,2-d]pyrimidin-1-ium)bromide]
IC50 (P. falciparum strain 3D7; [1]): 0.142 µM
fold decrease of antimalarial activity with respect to RSM932A (P. falciparum strain 3D7): up to 10 fold
fold decrease in parasite lethality with respect to BR-31 (P. falciparum strain 3D7): 10 fold
IC50 (PfCK): 7.27 ± 0.23 µM
remaining activity at 25 µM (PfCK; [2]): 12.9 ± 3.32%

CN(c1ccc(Cl)cc1)c1nc[n+](Cc2ccc(-c3ccc(C[n+]4cnc(N(C)c5ccc(Cl)cc5)c5ccsc54)cc3)cc2)c2sccc12.[Br-].[Br-] [Fp-8, 1,1’-([1,1’-biphenyl]-4,4’-diylbis(methylene))bis(4-((4-chlorophenyl)(methyl)amino)thieno[2,3-d]pyrimidin-1-ium) bromide]
IC50 (P. falciparum strain 3D7; [1]): 0.282 µM
fold decrease of antimalarial activity with respect to RSM932A (P. falciparum strain 3D7): up to 10 fold
fold decrease in parasite lethality with respect to BR-31 (P. falciparum strain 3D7): 10 fold
IC50 (PfCK): 4.17 ± 0.48 µM
remaining activity at 25 µM (PfCK; [2]): 8.1 ± 5.8%
